Measurements reported in patent publication US20100324067A1, “TETRACYCLIC DIPYRANO-COUMARIN COMPOUNDS WITH ANTI-HIV AND ANTI-MYCOBACTERIUM TUBERCULOSIS ACTIVITIES” (priority 2007, published 2010).
pEC50: −log10 of the molar value. Values after ≈ are worked out from the molar mass of the structure shown. Like-named read-outs stand apart in the source and are kept apart here.

How the values were obtained:
[1] = tested on: HIV-1; assay: Inhibitory activity against HIV-1 (literature method, Chen et al. J Virol 1997); conditions: for inhibition at 1 µM: Human immunodeficiency virus 1, read-out: Anti-HIV (%, 1.0 μM); for pEC50: Human immunodeficiency virus 1; for Therapeutic index (TI) = 50% cytotoxicity doses/50% effective dose: value in brackets after EC50; for Anti-HIV (%, 1.0 μM): compound at 1.0 μM
Protocol: Inhibitory activity of the coumarin derivatives of the present invention against HIV-1.
Inhibitory activity of the compounds against HIV-1 is assayed using the literature method. The experimental conditions, procedures, reagents and so on of the experiment are referred to the reference of “ZHIWEI CHEN, PEI ZHOU, DAVID D. HO, et al. Genetically divergent strains of simian immuno-deficiency virus use CCR5 as a coreceptor for entry. Journal of Virology, 1997, 71(4): 2705-2714”.

[2] = tested on: host cells of the virus; assay: Cell toxicity to the host cells of the virus at 10 μM; assay type: cell-based
[3] = tested on: Mycobacterium tuberculosis H37Rv (ATCC 27294); assay: Microplate Alamar Blue Assay (MABA) in BACTEC 12B medium (TAACF screen); assay type: cell-based
[4] = read-out: anti-TB active compound (MIC90 less than 10 μg/mL), classification

CCCc1cc(=O)oc2c3c(c4c(c12)OC(c1ccccc1[N+](=O)[O-])C=C4)OC(C)CC3=O (stereo not drawn) [Example 97]
inhibition at 1 µM [1]: 52.6% | Cell toxicity (10 μM) [2]: − | melting point: 216 to 218 °C

COc1cc(-c2cc(=O)oc3c4c(c5c(c23)OC(C)(C)C=C5)OC(C)CC4=O)cc(OC)c1OC (stereo not drawn) [Example 24, 6,6,10-trimethyl-4-(3,4,5-trimethoxyl)-phenyl-2H,6H,12H-benzo[1,2-b:3,4-b′:5,6-b″]-tripyranyl-2,12-dione]
inhibition at 1 µM [1]: 58% | Cell toxicity (10 μM) [2]: − | melting point: 129 to 131 °C

C/C=C/C1C=Cc2c3c(c4oc(=O)c(Cl)c(CCC)c4c2O1)C(=O)CC(C)O3 (stereo not drawn) [Example 86, 4-n-propyl-6-propenyl-3-chloro-10-methyl-2H,6H,12H-benzo[1,2-b:3,4-b′:5,6-b″]-tripyranyl-2,12-dione]
inhibition at 1 µM [1]: 57.3% | Cell toxicity (10 μM) [2]: − | melting point: 142 to 144 °C

CCCCC1C=Cc2c3c(c4oc(=O)cc(CCC(F)(F)F)c4c2O1)C(=O)CC(C)O3 (stereo not drawn) [Example 73, 4-(3,3′,3″-trifluoro-n-propyl)-6-n-butyl-10-methyl-2H,6H,12H-benzo[1,2-b:3,4-b′: 5,6-b″]-tripyranyl-2,12-dione]
inhibition at 1 µM [1]: 53.6% | Cell toxicity (10 μM) [2]: − | melting point: 129 to 130 °C

CCCc1c(Cl)c(=O)oc2c3c(c4c(c12)OC(c1ccccc1)C=C4)OC(C)CC3=O (stereo not drawn) [Example 50, 1-methyl-4-n-propyl-3-chloro-6-phenyl-2H,6H,12H-benzo[1,2-b:3,4-b′:5,6-b″]-tripyranyl-12-dione]
inhibition at 1 µM [1]: 96.3% | IC50 [3]: 6.07 µg/mL (≈ 13.9 µM) | MIC90 ([3]; MABA, H37Rv, read-out: MIC90): 6.7 µg/mL (≈ 15.3 µM) | MIC90 [3, 4]: < 10 µg/mL | melting point: 152 to 154 °C

C/C=C/C1C=Cc2c3c(c4oc(=O)cc(CCC)c4c2O1)C(=O)C(C)CO3 (stereo not drawn) [Example 76, 4-n-propyl-6-propenyl-11-methyl-2H,6H,12H-benzo[1,2-b:3,4-b′:5,6-b″]-tripyranyl-2,12-dione]
inhibition at 1 µM [1]: 37.8% | Cell toxicity (10 μM) [2]: − | melting point: 165 to 166 °C

CCCc1c(Cl)c(=O)oc2c3c(c4c(c12)OC(C)C=C4)OC(C)CC3=O (stereo not drawn) [Example 81, 6,10-dimethyl-4-n-propyl-3-chloro-2H,6H,12H-benzo[1,2-b:3,4-b′:5,6-b″]-tripyranyl-2,12-dione]
inhibition at 1 µM [1]: 55.7% | Cell toxicity (10 μM) [2]: − | melting point: 129 to 131 °C

CCCc1c(Cl)c(=O)oc2c3c(c4c(c12)OCC(C)=C4)OC(C)CC3=O (stereo not drawn) [Example 91, 4-n-propyl-3-chloro-7,10-dimethyl-2H,6H,12H-benzo[1,2-b:3,4-b′:5,6-b″]-tripyranyl-2,12-dione]
inhibition at 1 µM [1]: 49.1% | Cell toxicity (10 μM) [2]: − | melting point: 129 to 131 °C

CCCc1cc(=O)oc2c3c(c4c(c12)OC(C)(C)C=C4)OC(C)(C)CC3=O [Example 12, 6,6,10,10-tetramethyl-4-n-propyl-2H,6H,12H-benzo[1,2-b:3,4-b′:5,6-b″]-tripyranyl-2,12-dione]
pEC50 [1]: 6.19 | inhibition at 1 µM [1]: 68.3% | Therapeutic index (TI) = 50% cytotoxicity doses/50% effective dose [1]: 47-140 | melting point: 110 to 112 °C

CCc1cc(=O)oc2c3c(c4c(c12)OC(C)(C)C=C4)OC(C)CC3=O (stereo not drawn) [Example 9]
pEC50 [1]: 6.57 | inhibition at 1 µM [1]: 73.2% | Therapeutic index (TI) = 50% cytotoxicity doses/50% effective dose [1]: > 1000 | Cell toxicity (10 μM) [2]: −

CC1CC(=O)c2c(c3c(c4c5c(c(=O)oc24)CCCC5)OC(C)(C)C=C3)O1 (stereo not drawn) [Example 27, 6,6,10-trimethyl-3,4-cyclohexyl-2H,6H,12H-benzo[1,2-b:3,4-b′:5,6-b″]-tripyranyl-2,12-dione]
inhibition at 1 µM [1]: 67% | Cell toxicity (10 μM) [2]: − | melting point: 121 to 123 °C

CCCc1cc(=O)oc2c3c(c4c(c12)OC(c1ccccc1[N+](=O)[O-])CC4OCC)OC(C)CC3=O (stereo not drawn) [Example 98, 8-ethoxyl-4-n-propyl-6-(o-nitrophenyl)-10-methyl-4-n-propyl-7,8,10,11-tetrahydro-6H-benzo[2,3-f;2′,3′-h]-tripyranyl-2,12-dione]
inhibition at 1 µM [1]: 61% | melting point: 237 to 240 °C

CCCc1c(Cl)c(=O)oc2c3c(c4c(c12)OC(C)(C)C=C4)OC(C)CC3=O (stereo not drawn) [Example 20, 6,6,10-trimethyl-3-chrolo-4-n-propyl-2H,6H,12H-benzo[1,2-b:3,4-b′:5,6-b″]-tripyranyl-2,12-dione]
pEC50 [1]: 6.43 | inhibition at 1 µM [1]: 68.1% | Therapeutic index (TI) = 50% cytotoxicity doses/50% effective dose [1]: 243-730 | Cell toxicity (10 μM) [2]: −

CCCc1cc(=O)oc2c3c(c4c(c12)OC(C)(C)C=C4)OC(C)CC3=O (stereo not drawn) [Example 29, 6,6,10-trimethyl-4-n-propyl-2H,6H,12H-benzo[1,2-b:3,4-b′:5,6-b″]-tripyranyl-2,12-dione]
Anti-HIV (%, 1.0 μM) [1]: 73.1% | Cell toxicity (10 μM) [2]: − | melting point: 112 to 115 °C

CCCc1cc(=O)oc2c3c(c4c(c12)OC(C)(C)C=C4)O[C@@H]1CCCC[C@@H]1C3=O [Example 19, 6,6-dimethyl-4-n-propyl-10,11-cis-cyclohexyl-2H,6H,12H-benzo[1,2-b:3,4-b′:5,6-b″]-tripyranyl-2,12-dione]
inhibition at 1 µM [1]: 59.3% | IC50 [3]: 7.95 µg/mL (≈ 20.1 µM) | MIC90 ([3]; MABA, H37Rv, read-out: MIC90): 11.2 µg/mL (≈ 28.5 µM) | melting point: 156 to 159 °C

CCCc1cc(=O)oc2c3c(c4c(c12)OC(C)(C)C=C4)OCC(C)C3=O (stereo not drawn) [Example 30, 6,6,11-trimethyl-4-n-propyl-2H,6H,12H-benzo[1,2-b:3,4-b′:5,6-b″]-tripyranyl-2,12-dione]
inhibition at 1 µM [1]: 38.9% | melting point: 133 to 134 °C

CCCc1cc(=O)oc2c1c1c(c3occc(=O)c32)C=CC(C)(C)O1 [Example 13, 6,6-dimethyl-4-n-propyl-2H,6H,12H-benzo[1,2-b:3,4-b′:5,6-b″]-tripyranyl-2,12-dione]
inhibition at 1 µM [1]: 64.9% | Cell toxicity (10 μM) [2]: − | melting point: 102 to 104 °C

CCCc1cc(=O)oc2c3c(c4c(c12)OC(C)(C)C=C4)OC(c1ccc(C)cc1)CC3=O (stereo not drawn) [Example 17, 6,6-dimethyl-4-n-propyl-10-p-methyl-phenyl-2H,6H,12H-benzo[1,2-b:3,4-b′:5,6-b″]-tripyranyl-2,12-dione]
inhibition at 1 µM [1]: 57% | Cell toxicity (10 μM) [2]: − | melting point: 174 to 176 °C

CCCc1c(F)c(=O)oc2c3c(c4c(c12)OCC(C)=C4)OC(C)CC3=O (stereo not drawn) [Example 92]
inhibition at 1 µM [1]: 47.1% | Cell toxicity (10 μM) [2]: − | melting point: 122 to 124 °C

CCCCC1C=Cc2c3c(c4oc(=O)cc(CC)c4c2O1)C(=O)CC(C)O3 (stereo not drawn) [Example 46]
inhibition at 1 µM [1]: 96.7% | IC50 [3]: 0.276 µg/mL (≈ 0.749 µM) | MIC90 ([3]; MABA, H37Rv, read-out: MIC90): 0.716 µg/mL (≈ 1.94 µM) | MIC90 [3, 4]: < 10 µg/mL | melting point: 119 to 121 °C

CCc1cc(=O)oc2c3c(c4c(c12)OC(c1ccccc1)C=C4)OC(C)CC3=O (stereo not drawn) [Example 45]
inhibition at 1 µM [1]: 96.4% | IC50 [3]: 2.01 µg/mL (≈ 5.18 µM) | MIC90 ([3]; MABA, H37Rv, read-out: MIC90): 2.73 µg/mL (≈ 7.02 µM) | MIC90 [3, 4]: < 10 µg/mL | melting point: 126 to 128 °C

CCCc1cc(=O)oc2c3c(c4c(c12)OC(C)(C)C=C4)OC(CBr)CC3=O (stereo not drawn) [Example 57]
pEC50 [1]: 8.55 | inhibition at 1 µM [1]: 93.5% | anti-HIV-1 activity in vitro compared to (+)-calanolide A ([1]; in words): much higher inhibitory activity | therapeutic index, in words ([1]; in words): high therapeutic index | Therapeutic index (TI) = 50% cytotoxicity doses/50% effective dose [1]: > 10526 | Cell toxicity (10 μM) [2]: − | IC50 [3]: 0.825 µg/mL (≈ 1.9 µM) | MIC90 ([3]; MABA, H37Rv, read-out: MIC90): 1.75 µg/mL (≈ 4.05 µM)

CCCc1cc(=O)oc2c3c(c4c(c12)OC(C)(C)C=C4)OC(C)CC3O (single isomer, unassigned; (+)) [(+)-11-demethyl Calanolide A, reference compound]
Anti-HIV (%, 1.0 μM) [1]: 75% | Cell toxicity (10 μM) ([2]; class symbol, share of host cells of the virus died at 10 μM compound): ++ (10-80%) | Cell toxicity (10 μM), number printed before the class symbol ([2]; host cells of the virus died at 10 μM compound): 54%

CCCCC1C=Cc2c3c(c4oc(=O)cc(CCC)c4c2O1)C(=O)C(C)CO3 (stereo not drawn) [Example 77, 4-n-propyl-6-n-butyl-11-methyl-2H,6H,12H-benzo[1,2-b:3,4-b′:5,6-b″]-tripyranyl-2,12-dione]
inhibition at 1 µM [1]: 35.2% | melting point: 144 to 145 °C

CCCCc1cc(=O)oc2c3c(c4c(c12)OC(c1ccccc1)C=C4)OC(C)CC3=O (stereo not drawn) [Example 44]
inhibition at 1 µM [1]: 96.4% | melting point: 137 to 139 °C

CCCc1cc(=O)oc2c3c(c4c(c12)OC(C)(C)C=C4)O[C@@H]1CCCC[C@H]1C3=O [Example 18, 6,6-dimethyl-4-n-propyl-10,11-trans-cyclohexyl-2H,6H,12H-benzo[1,2-b:3,4-b′:5,6-b″]-tripyranyl-2,12-dione]
inhibition at 1 µM [1]: 40% | IC50 [3]: 46.8 µg/mL (≈ 119 µM) | MIC90 ([3]; MABA, H37Rv, read-out: MIC90): > 100 µg/mL | melting point: 151 to 153 °C

CCCC1C=Cc2c3c(c4oc(=O)cc(CC)c4c2O1)C(=O)CC(C)O3 (stereo not drawn) [Example 47]
inhibition at 1 µM [1]: 97% | IC50 [3]: 1.49 µg/mL (≈ 4.21 µM) | MIC90 ([3]; MABA, H37Rv, read-out: MIC90): 1.73 µg/mL (≈ 4.88 µM) | MIC90 [3, 4]: < 10 µg/mL | melting point: 119 to 121 °C

CCCCCC1CC(=O)c2c(c3c(c4c(CCC)cc(=O)oc24)OC(C)(C)C=C3)O1 (stereo not drawn) [Example 15, 6,6-dimethyl-4-n-propyl-10-n-pentyl-2H,6H,12H-benzo[1,2-b:3,4-b′:5,6-b″]-tripyranyl-2,12-dione]
inhibition at 1 µM [1]: 46.4% | melting point: 128 to 131 °C

CCCc1cc(=O)oc2c3c(c4c(c12)OC(C)C=C4)OCC(C)C3=O (stereo not drawn) [Example 75, 6,11-dimethyl-4-n-propyl-2H,6H,12H-benzo[1,2-b:3,4-b′:5,6-b″]-tripyranyl-2,12-dione]
inhibition at 1 µM [1]: 62.4% | IC50 [3]: 1 µg/mL (≈ 2.95 µM) | MIC90 ([3]; MABA, H37Rv, read-out: MIC90): 1.89 µg/mL (≈ 5.56 µM) | MIC90 [3, 4]: < 10 µg/mL | melting point: 135 to 137 °C
